For assay [1], the system named is MGC-803. Put plainly: Induction of apoptosis in human MGC803 cells assessed as early apoptotic cells at 1.5 ug/ml in presence of N-acetyl cysteine by annexin V-FITC/propidium iodide staining-based flow cytometric method (reference value: 1.3%). Format: functional.
The test system of assay [2] is MGC-803. Put plainly: Induction of reactive oxygen species formation in human MGC803 cells at 3 ug/ml after 3 hrs by DCFH-DA staining-based flow cytometry (reference value: 7.1%). Format: functional. On the technique in general: Flow cytometry measures light scatter and fluorescence of single cells or particles in a stream.
Assay [3] has as its system MGC-803. Put plainly: Induction of apoptosis in human MGC803 cells assessed as upregulation of cytochrome c levels in cytoplasm at 1.5 to 6 ug/ml after 48 hrs by Western blot method. Format: functional, cell-based. (Immunoblotting shows a protein as a band on a membrane.)
Assay [4] concerns MGC-803. Put plainly: Induction of apoptosis in human MGC803 cells assessed as necrotic cells at 3 ug/ml by annexin V-FITC/propidium iodide staining-based flow cytometric method (reference value: 1%). Format: functional.
In assay [5] the test system is MGC-803. Put plainly: Cell cycle arrest in human MGC803 cells assessed as accumulation at G2/M phase after 48 hrs by propidium iodide staining-based flow cytometric method. In kind it is functional.
Assay [6] concerns MGC-803. Put plainly: Induction of apoptosis in human MGC803 cells assessed as viable cells at 1.5 ug/ml in presence of N-acetyl cysteine by annexin V-FITC/propidium iodide staining-based flow cytometric method (reference value: 97.6%). In kind it is functional. To be noted: read-out: Activity.
In assay [7] the test system is MGC-803. Put plainly: Induction of apoptosis in human MGC803 cells assessed as upregulation of p21 levels at 1.5 to 6 ug/ml after 48 hrs by Western blot method. In kind it is functional, cell-based.
Assay [8] relates to MGC-803. Put plainly: Induction of apoptosis in human MGC803 cells assessed as late apoptotic cells at 1.5 ug/ml in presence of N-acetyl cysteine by annexin V-FITC/propidium iodide staining-based flow cytometric method (reference value: 0.1%). Format: functional.
Assay [9] has as its system MGC-803. The assay is described as follows: Disruption of mitochondrial membrane potential in human MGC803 cells at 1.5 to 3 ug/ml after 24 hrs by JC1 staining-based fluorescence microscopic method. In kind it is functional, cell-based.
In assay [10] the test system is PC-3. Put plainly: Antiproliferative activity against human PC3 cells after 48 hrs by MTT assay. In kind it is functional, cell-based. To be noted: PC-3, 48 h. In general terms: Tetrazolium assays rely on reduction of a dye to a coloured formazan, in cell work by metabolically active cells.
For assay [11], the system named is MGC-803. Put plainly: Induction of apoptosis in human MGC803 cells assessed as necrotic cells at 1.5 ug/ml in presence of N-acetyl cysteine by annexin V-FITC/propidium iodide staining-based flow cytometric method (reference value: 1%). In kind it is functional.
Assay [12] concerns ECa-109 cell line. Put plainly: Antiproliferative activity against human ECA109 cells after 48 hrs by MTT assay. Format: functional, cell-based. The following applies: ECa-109, 48 h.
Assay [13] deals with MGC-803. Put plainly: Induction of apoptosis in human MGC803 cells assessed as increase in cell debris after 24 hrs by inverted microscopic method. In kind it is functional, cell-based.
Assay [14] has as its system SMMC-7721. Put plainly: Antiproliferative activity against human SMMC7721 cells after 48 hrs by MTT assay. In kind it is functional, cell-based. The following applies: SMMC-7721, 48 h.
Assay [15] relates to MGC-803. The assay is described as follows: Induction of apoptosis in human MGC803 cells assessed as upregulation of p53 levels at 1.5 to 6 ug/ml after 48 hrs by Western blot method. Format: functional, cell-based.
The subject of assay [16] is HGC-27. The assay is described as follows: Antiproliferative activity against human HGC27 cells after 48 hrs by MTT assay. In kind it is functional, cell-based. To be noted: HGC-27, 48 h.
For assay [17], the system named is MGC-803. The assay is described as follows: Induction of apoptosis in human MGC803 cells assessed as viable cells at 3 ug/ml by annexin V-FITC/propidium iodide staining-based flow cytometric method (reference value: 97.6%). To be noted: read-out: Activity. Format: functional.
In assay [18] the test system is MGC-803. Put plainly: Cell cycle arrest in human MGC803 cells assessed as accumulation at G2/M phase at 3 ug/ml after 48 hrs by propidium iodide staining-based flow cytometric method (reference value: 17.2 +/- 1.35%). In kind it is functional.

The source made the active and inactive calls. The calls are words filed in the database; no cut-off is given here.

On to `C=C1C(=O)[C@]23[C@H](O)[C@H]1C[C@H](O)[C@H]2[C@]12CCCC(C)(C)[C@H]1C[C@H]3O[C@@H]2OCCc1cn(Cc2ccc(Cl)cc2)nn1`, for which the Activity is 4.2% in assay [1]; 13.6% in assay [2]; 1.3% in [4]; “Dose-dependent effect” in assay [5]; 0.1% in assay [8]; 0.6% in assay [11]. For the same compound, the results for the Activity result in [13] and in [18] were “Dose-dependent effect” and 40.3%, respectively. Besides, the result in assay [3], in [7], in assay [9] and in assay [15] was Active. The viability at 1.5 µg/mL in [6] is 95%. In addition, the half-maximal inhibitory concentration (IC50) (as a rule, the midpoint of a concentration-inhibition curve) in [10] was found to be 4.02 µM; in assay [12], 2.7 µM; in [14], 4.44 µM; in assay [16] it was 2.97 µM. Moreover, the viability at 3 µg/mL in assay [17] came to 37.4%.

(Values after ChEMBL document CHEMBL4229547, “Design, synthesis and biological mechanisms research on 1,2,3-triazole derivatives of Jiyuan Oridonin A” (Bioorg Med Chem, 2018).)
